Patent US20230257480A1, “ENHANCING BLOOD-BRAIN BARRIER DRUG TRANSPORT BY TARGETING ENDOGENOUS REGULATORS” (THE BOARD OF TRUSTEES OF THE LELAND STANFORD JUNIOR …, priority 2019, published 2023)

Tested on: brain parenchymal cells
Test: Flow cytometry of brain parenchymal (CD31-/CD45-) cell uptake of tracer after ALPL inhibitor treatment
Format: in vivo, mice
Conditions: vs vehicle
Source text: FIG. 12A is a dot plot representation of cell-surface, druggable gene candidates on brain endothelial cells. Genes were plotted by their degree of blood-brain barrier specificity (Daneman et al., PLoS One (2010). doi:10.1371/journal.pone.0013741) and correlation with plasma uptake. Genes were colored by their upregulation (brown) or downregulation (green) with age. FIG. 12B includes representative images of calcified nodules (Alizarin red staining) detected in aged (23 m.o.—bottom panel) but not young (3 m.o.—top panel) mice, recapitulating nodules seen in pericyte-deficient Pdgfbret/ret mice (Keller et al., Nat. Genet. (2013). doi:10.1038/ng.2723) (representative image of n=5 mice per age). FIG. 12C includes representative images of Type I Collagen expression (green) in Lectin^+ vasculature (red) in the cerebral cortex of young (3 m.o.—left panels) and aged (23 m.o.—right panels) mice. Scale bar=40 microns. FIG. 12D includes representative images of ALPL expression (yellow) in AQP4^+ vasculature (purple) in the cerebral cortex of young (3 m.o.—left panels) and aged (23 m.o.—right panels) mice. Scale bar=40 microns. FIG. 12E is a graph illustrating quantification of ALPL expression in the cerebral cortex vasculature of young (3 m.o.) and aged (23 m.o.) mice (n=7, two-sided t-test; mean+/−s.e.m.). FIG. 12F is a schematic diagram illustrating cerebrovascular ALPL inhibition. Aged (22 m.o.) mice were injected intraperitoneally with vehicle or ALPL inhibitor twice a day for three days before intravenous injection of plasma, human holotransferrin, or transferrin receptor antibody. Uptake in the brain endothelium and parenchyma was assessed by flow cytometry and confocal microscopy of the cortex and hippocampus. FIG. 12G includes representative images of ectopic ALPL activity (red) in the cerebral cortex vasculature of aged (22 m.o.) mice treated with ALPL inhibitor (anti-ALPL) or vehicle and in young (3 m.o.) mice. FIG. 12H is a graph illustrating quantification of ALPL activity in the cerebral cortex vasculature of aged (22 m.o.) mice treated with ALPL inhibitor (anti-ALPL) or vehicle and in young (3 m.o.) mice (n=6-9, one-way ANOVA with Tukey's multiple comparisons correction; mean+/−s.e.m.). FIGS. 12I-12L include graphs illustrating flow cytometry quantification of brain parenchymal (CD31−/CD45−) cell uptake of plasma in aged (22 m.o.) mice (FIG. 12I); plasma in young (3 m.o.) mice (FIG. 12J); human holo-transferrin (hu-Tf) in aged (22 m.o.) mice (FIG. 12K); or transferrin receptor antibody (TfR Ab) in aged (22 m.o.) mice (FIG. 12L) after ALPL inhibitor (anti-ALPL) and vehicle treatment, as assessed by the percent (%) of parenchymal cells that are tracer^+ and the relative mean fluorescence intensity (MFI) of tracer^+ parenchymal cells (for plasma, n=4; for hu-Tf, n=5-6; for TfR Ab, n=9, two-sided t-test; mean+/−s.e.m.). Tracer refers to plasma, hu-Tf, or TfR Ab FIG. 12M includes representative images of transferrin receptor antibody (TfR Ab) in the cortical vasculature (red) and parenchymal cells of ALPL inhibitor-treated aged (22 m.o.) mice. Arrowheads indicate TfR Ab^+ NeuN neurons. Scale bar=40 microns (left) and 10 microns (right). Data were replicated in at least 2 independent experiments.
CNS cell isolation adopted previously described methods42,139,140. Briefly, cortices and hippocampi were microdissected, minced, and digested using the Neural Dissociation Kit (Miltenyi). Suspensions were filtered through a 100 μm strainer and myelin removed by centrifugation in 0.9 M sucrose. The remaining myelin-depleted cell suspension was blocked for ten minutes with Fc preblock (CD16/CD32, BD 553141) on ice and stained for 30 minutes with antibodies to distinguish brain endothelial cells (CD31+/CD45−), astrocytes (ACSA-2+), and neurons (NeuN+ or CD90.2/Thy1.2+). For analysis of plasma uptake, at least 1,000 cells of each population of interest were analyzed per sample. […]

COc1ccc(OC)c(S(=O)(=O)Nc2cnc3ccccc3c2)c1 [ALPL inhibitor, 2,5-Dimethoxy-N-(quinolin-3-yl)benzenesulfonamide] was tested. Which “parenchymal uptake of transferrin receptor antibody” value (aged (22 m.o.) mice, TfR Ab 20 mg/kg i.v.) did it give?
Its value is “increased”.

And the “parenchymal uptake of human holo-transferrin” value (aged (22 m.o.) mice, hu-Tf 40 mg/kg i.v.)?
The value was “increased”.

What about the “amount of plasma taken up by participating cells” value (aged mice, parenchymal cells (MFI)) of the same compound?
Its value is “increased”.

And the “percentage of plasma+ cells” value (aged mice, parenchymal cells)?
The value was “did not change”.

What about the “plasma transport across the endothelium to brain parenchymal cells” value (aged mice) of the same compound?
Its value is “increased”.

And the “plasma transcytosis across the young BBB to the parenchyma” value (young (3 m.o.) mice)?
The value was “did not significantly enhance”.
